# Measurements from PMC9518264, “Design and synthesis of novel quinazolinone-based derivatives as EGFR inhibitors with antitumor activity” (Journal of Enzyme Inhibition and Medicinal Chemistry, 2022).
# How the values were obtained:
# HL-60(TB) = experiment: cells; type: cell-based; conditions: Homo sapiens; HL-60(TB); 10 μM; read-out: growth inhibition % (GI%)
# MOLT-4 = experiment: cells; type: cell-based; conditions: Homo sapiens; MOLT-4; 10 μM; read-out: growth inhibition % (GI%)
# RPMI-8226 = experiment: cells; type: cell-based; conditions: Homo sapiens; RPMI-8226; 10 μM; read-out: growth inhibition % (GI%)
# SR = experiment: cells; type: cell-based; conditions: Homo sapiens, 10 μM, read-out: growth inhibition % (GI%)
# A549/ATCC = experiment: cells; type: cell-based; conditions: Homo sapiens; A549/ATCC; 10 μM; read-out: growth inhibition % (GI%)
# EKVX = experiment: cells; type: cell-based; conditions: Homo sapiens, 10 μM, read-out: growth inhibition % (GI%)
# HOP-62 = experiment: cells; type: cell-based; conditions: Homo sapiens; HOP-62; 10 μM; read-out: growth inhibition % (GI%)
# HOP-92 = experiment: cells; type: cell-based; conditions: Homo sapiens; HOP-92; 10 μM; read-out: growth inhibition % (GI%)
# NCI-H226 = experiment: cells; type: cell-based; conditions: Homo sapiens; NCI-H226; 10 μM; read-out: growth inhibition % (GI%)
# NCI-H322M = experiment: cells; type: cell-based; conditions: Homo sapiens, 10 μM, read-out: growth inhibition % (GI%)
# NCI-H460 = experiment: cells; type: cell-based; conditions: Homo sapiens; NCI-H460; 10 μM; read-out: growth inhibition % (GI%)
# NCI-H522 = experiment: cells; type: cell-based; conditions: Homo sapiens; NCI-H522; 10 μM; read-out: growth inhibition % (GI%)
# COLO-205 = experiment: cells; type: cell-based; conditions: Homo sapiens; COLO-205; 10 μM; read-out: growth inhibition % (GI%)
# HCC-2998 = experiment: cells; type: cell-based; conditions: Homo sapiens; HCC-2998; 10 μM; read-out: growth inhibition % (GI%)
# HCT-116 = experiment: cells; type: cell-based; conditions: Homo sapiens; HCT-116; 10 μM; read-out: growth inhibition % (GI%)
# HCT-15 = experiment: cells; type: cell-based; conditions: Homo sapiens; HCT-15; 10 μM; read-out: growth inhibition % (GI%)
# HT29 = experiment: cells; type: cell-based; conditions: Homo sapiens, HT-29; HT29; 10 μM; read-out: growth inhibition % (GI%)
# KM12 = experiment: cells; type: cell-based; conditions: Homo sapiens; KM12; 10 μM; read-out: growth inhibition % (GI%)
# SF-539 = experiment: cells; type: cell-based; conditions: Homo sapiens; SF-539; 10 μM; read-out: growth inhibition % (GI%)
# SNB-19 = experiment: cells; type: cell-based; conditions: Homo sapiens; SNB-19; 10 μM; read-out: growth inhibition % (GI%)
# SNB-75 = experiment: cells; type: cell-based; conditions: Homo sapiens; SNB-75; 10 μM; read-out: growth inhibition % (GI%)
# U251 = experiment: cells; type: cell-based; conditions: Homo sapiens, U-251; U251; 10 μM; read-out: growth inhibition % (GI%)
# LOX IMIV = experiment: cells; type: cell-based; conditions: Homo sapiens, 60 cell; LOX IMIV; 10 μM; read-out: growth inhibition % (GI%)
# MDA-MB-435 = experiment: cells; type: cell-based; conditions: Homo sapiens; MDA-MB-435; 10 μM; read-out: growth inhibition % (GI%)
# SK-MEL-2 = experiment: cells; type: cell-based; conditions: Homo sapiens; SK-MEL-2; 10 μM; read-out: growth inhibition % (GI%)
# SK-MEL-28 = experiment: cells; type: cell-based; conditions: Homo sapiens; SK-MEL-28; 10 μM; read-out: growth inhibition % (GI%)
# UACC-257 = experiment: cells; type: cell-based; conditions: Homo sapiens; UACC-257; 10 μM; read-out: growth inhibition % (GI%)
# UACC-62 = experiment: cells; type: cell-based; conditions: Homo sapiens; UACC-62; 10 μM; read-out: growth inhibition % (GI%)
# IGROV1 = experiment: cells; type: cell-based; conditions: Homo sapiens, IGROV-1; IGROV1; 10 μM; read-out: growth inhibition % (GI%)
# OVCAR-4 = experiment: cells; type: cell-based; conditions: Homo sapiens; OVCAR-4; 10 μM; read-out: growth inhibition % (GI%)
# OVCAR-5 = experiment: cells; type: cell-based; conditions: Homo sapiens; OVCAR-5; 10 μM; read-out: growth inhibition % (GI%)
# NCI/ADR-RES = experiment: cells; type: cell-based; conditions: Homo sapiens, 10 μM, read-out: growth inhibition % (GI%)
# SK-OV-3 = experiment: cells; type: cell-based; conditions: Homo sapiens; SK-OV-3; 10 μM; read-out: growth inhibition % (GI%)
# 786-0 = experiment: cells; type: cell-based; conditions: Homo sapiens; 786-0; 10 μM; read-out: growth inhibition % (GI%)
# A498 = experiment: cells; type: cell-based; conditions: Homo sapiens; A498; 10 μM; read-out: growth inhibition % (GI%)
# TK-10 = experiment: cells; type: cell-based; conditions: Homo sapiens; TK-10; 10 μM; read-out: growth inhibition % (GI%)
# PC-3 = experiment: cells; type: cell-based; conditions: Homo sapiens; PC-3; 10 μM; read-out: growth inhibition % (GI%)
# DU-145 = experiment: cells; type: cell-based; conditions: Homo sapiens; DU-145; 10 μM; read-out: growth inhibition % (GI%)
# MCF7 = experiment: cells; type: cell-based; conditions: Homo sapiens; MCF7; 10 μM; read-out: growth inhibition % (GI%)
# MDA-MB-231/ATCC = experiment: NCI 60 cell line antiproliferative screening (SRB), Breast cancer; type: cell-based; conditions: Homo sapiens, MDA-MB-231, read-out: growth inhibition % (GI%)
# HS 578T = experiment: cells; type: cell-based; conditions: Homo sapiens; HS 578T; 10 μM; read-out: growth inhibition % (GI%)
# BT-549 = experiment: cells; type: cell-based; conditions: Homo sapiens; BT-549; 10 μM; read-out: growth inhibition % (GI%)
# T-47D = experiment: cells; type: cell-based; conditions: Homo sapiens, T47D; T-47D; 10 μM; read-out: growth inhibition % (GI%)
# [1] = tested on: panel of 60 tumour cell lines; experiment: NCI 60 cell line antiproliferative screening (SRB), whole panel or subpanels (means, ranges, words); type: cell-based, human; conditions: for antiproliferative activity against all tested cell lines: 10 μM single dose; for inhibition at 10 µM: Homo sapiens, 60 cell, mean over the cell line panel, read-out: Mean growth inhibition % (mean GI%)
# MDA-MB-468 = experiment: NCI 60 cell line antiproliferative screening (SRB), Breast cancer; conditions: Homo sapiens, MDA-MB-468, read-out: growth inhibition % (GI%)
# OVCAR-3 = experiment: NCI 60 cell line antiproliferative screening (SRB), Ovarian cancer; conditions: Homo sapiens, OVCAR-3, read-out: growth inhibition % (GI%)
smiles,measurement,setting,value
"O=C(CSc1nc2ccccc2c(=O)n1-c1ccc(Cl)cc1)NN=Cc1ccc(N2CCOCC2)cc1 [6k, 2-((3–(4-chlorophenyl)-4-oxo-3,4-dihydroquinazolin-2-yl)thio)-N'-(4-morpholinobenzylidene) acetohydrazide]",inhibition at 10 µM,HL-60(TB),< 15%
same,inhibition at 10 µM,MOLT-4,< 15%
same,inhibition at 10 µM,RPMI-8226,< 15%
same,inhibition at 10 µM,SR,< 15%
same,inhibition at 10 µM,A549/ATCC,< 15%
same,inhibition at 10 µM,EKVX,< 15%
same,inhibition at 10 µM,HOP-62,< 15%
same,inhibition at 10 µM,HOP-92,< 15%
same,inhibition at 10 µM,NCI-H226,< 15%
same,inhibition at 10 µM,NCI-H322M,< 15%
same,inhibition at 10 µM,NCI-H460,< 15%
same,inhibition at 10 µM,NCI-H522,< 15%
same,inhibition at 10 µM,COLO-205,< 15%
same,inhibition at 10 µM,HCC-2998,< 15%
same,inhibition at 10 µM,HCT-116,< 15%
same,inhibition at 10 µM,HCT-15,< 15%
same,inhibition at 10 µM,HT29,< 15%
same,inhibition at 10 µM,KM12,< 15%
same,inhibition at 10 µM,SF-539,< 15%
same,inhibition at 10 µM,SNB-19,< 15%
same,inhibition at 10 µM,SNB-75,< 15%
same,inhibition at 10 µM,U251,< 15%
same,inhibition at 10 µM,LOX IMIV,< 15%
same,inhibition at 10 µM,MDA-MB-435,< 15%
same,inhibition at 10 µM,SK-MEL-2,< 15%
same,inhibition at 10 µM,SK-MEL-28,< 15%
same,inhibition at 10 µM,UACC-257,< 15%
same,inhibition at 10 µM,UACC-62,< 15%
same,inhibition at 10 µM,IGROV1,< 15%
same,inhibition at 10 µM,OVCAR-4,< 15%
same,inhibition at 10 µM,OVCAR-5,< 15%
same,inhibition at 10 µM,NCI/ADR-RES,< 15%
same,inhibition at 10 µM,SK-OV-3,< 15%
same,inhibition at 10 µM,786-0,< 15%
same,inhibition at 10 µM,A498,< 15%
same,inhibition at 10 µM,TK-10,< 15%
same,inhibition at 10 µM,PC-3,< 15%
same,inhibition at 10 µM,DU-145,< 15%
same,inhibition at 10 µM,MCF7,< 15%
same,inhibition at 10 µM,MDA-MB-231/ATCC,< 15%
same,inhibition at 10 µM,HS 578T,< 15%
same,inhibition at 10 µM,BT-549,< 15%
same,inhibition at 10 µM,T-47D,< 15%
same,antiproliferative activity against all tested cell lines,[1],did not show activity
same,inhibition at 10 µM,[1],< 0%
same,inhibition at 10 µM,MDA-MB-468,< 15%
same,inhibition at 10 µM,OVCAR-3,< 15%
"CN1CCN(c2ccc(C=NNC(=O)CSc3nc4ccccc4c(=O)n3-c3ccccc3)cc2)CC1 [6i, N'-(4–(4-methylpiperazin-1-yl)benzylidene)-2-((4-oxo-3-phenyl-3,4-dihydroquinazolin-2-yl)thio) acetohydrazide]",inhibition at 10 µM,HL-60(TB),< 15%
same,inhibition at 10 µM,MOLT-4,< 15%
same,inhibition at 10 µM,RPMI-8226,< 15%
same,inhibition at 10 µM,SR,< 15%
same,inhibition at 10 µM,A549/ATCC,< 15%
same,inhibition at 10 µM,EKVX,< 15%
same,inhibition at 10 µM,HOP-62,< 15%
same,inhibition at 10 µM,HOP-92,< 15%
same,inhibition at 10 µM,NCI-H226,< 15%
same,inhibition at 10 µM,NCI-H322M,< 15%
same,inhibition at 10 µM,NCI-H460,< 15%
same,inhibition at 10 µM,NCI-H522,< 15%
same,inhibition at 10 µM,COLO-205,< 15%
same,inhibition at 10 µM,HCC-2998,< 15%
same,inhibition at 10 µM,HCT-116,< 15%
same,inhibition at 10 µM,HCT-15,< 15%
same,inhibition at 10 µM,HT29,< 15%
same,inhibition at 10 µM,KM12,< 15%
same,inhibition at 10 µM,SF-539,< 15%
same,inhibition at 10 µM,SNB-19,< 15%
same,inhibition at 10 µM,SNB-75,< 15%
same,inhibition at 10 µM,U251,< 15%
same,inhibition at 10 µM,LOX IMIV,< 15%
same,inhibition at 10 µM,MDA-MB-435,< 15%
same,inhibition at 10 µM,SK-MEL-2,< 15%
same,inhibition at 10 µM,SK-MEL-28,< 15%
same,inhibition at 10 µM,UACC-257,< 15%
same,inhibition at 10 µM,UACC-62,< 15%
same,inhibition at 10 µM,IGROV1,< 15%
same,inhibition at 10 µM,OVCAR-4,< 15%
same,inhibition at 10 µM,OVCAR-5,< 15%
same,inhibition at 10 µM,NCI/ADR-RES,< 15%
same,inhibition at 10 µM,SK-OV-3,< 15%
same,inhibition at 10 µM,786-0,< 15%
same,inhibition at 10 µM,A498,10.2%
same,inhibition at 10 µM,TK-10,< 15%
same,inhibition at 10 µM,PC-3,< 15%
same,inhibition at 10 µM,DU-145,< 15%
same,inhibition at 10 µM,MCF7,< 15%
same,inhibition at 10 µM,MDA-MB-231/ATCC,< 15%
same,inhibition at 10 µM,HS 578T,< 15%
same,inhibition at 10 µM,BT-549,< 15%
same,inhibition at 10 µM,T-47D,< 15%
same,antiproliferative activity against all tested cell lines,[1],did not show activity
same,inhibition at 10 µM,[1],< 0%
same,inhibition at 10 µM,MDA-MB-468,< 15%
same,inhibition at 10 µM,OVCAR-3,< 15%
